Results on 18 compounds are retold here after PubChem BioAssay (NCI).

Common to all, as to test: DTP human tumour cell line panel, 48 h
Assay [1] deals with MDA-MB-435.
In assay [2] the test system is HCT-116 colon.
The subject of assay [3] is MDA-N.
Assay [4] concerns SW-620 colon.
The test system of assay [5] is HCT-15 colon.
Assay [6] concerns CCRF-CEM leukemia.
Assay [7] deals with M14 melanoma.
Assay [8] deals with HS 578T breast.
For assay [9], the system named is COLO 205 colon.
Assay [10] relates to HOP-92 NSCLC.

Each structure is given as a SMILES string. “And” between values parts separate entries of the source, which are not always exact repeats. Identical values can stand only once.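 Where inhibition never reached the appropriate level, the endpoint shown equals the highest concentration tested. Otherwise, values were interpolated linearly from a five-concentration, 48-hour dose response in 96-well plates. At the GI50, growth is halved. TGI marks complete inhibition of growth.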 Where only a bound is given, the exact number is not on record here.

By TGI is commonly meant the concentration giving total growth inhibition. A word on the GI50: it is the concentration that inhibits growth by half. `C=C(C(=O)O[C@H]1C(=O)C2=C(C)CCC3C(=C)C(=O)O[C@@H]3C2[C@]1(C)O)C1CC[C@]2(C)CCCC(=C)[C@H]2C1` (stereo partly drawn): the TGI is 10.1 µM and 8.5 µM in assay [1]; 9.96 µM and 8.4 µM in assay [2]; 11.6 µM and 8.45 µM in assay [3]; 21.2 µM in assay [4]; 8.77 µM and 12.8 µM in assay [5]; 0.106 µM in assay [6]. The TGI was 12.3 µM and 20.3 µM in assay [7]; 15.8 µM in [8]; 23 µM and 34.8 µM in [9]; 14.2 µM and 11.3 µM in [10]. The GI50 in assay [2] is 2.09 µM; in assay [3] it was 117 nM; in assay [5], 1.92 µM; in assay [7] it was 5.74 µM; in assay [9] it was 13.7 µM; in [10] it was 7.27 µM.

Take `C[N+](C)(CCNC(=O)c1cccc2cc3ccccc3nc12)Cc1ccc([N+](=O)[O-])s1`: the TGI in assay [1], in assay [2], in [3], in assay [4], in [5] and in assay [6] was > 25 µM in each case. Further, the TGI in assay [7], in [8], in assay [9] and in assay [10] was > 25 µM each time.

Consider `COc1cc(CS(=O)c2ccc(O)cc2)cc(OC)c1OC` (stereo not drawn), for which the TGI in assay [1], in assay [2], in [3], in [4], in assay [5] and in assay [6] was > 100 µM in each case. The TGI in [7], in [8], in assay [9] and in [10] was > 100 µM throughout.

As for `CCOC(=O)N1CCC(=C2c3ccc(Cl)cc3CCc3cccnc32)CC1`, the TGI in assay [1] is 24.9 µM; in assay [2] it was 32.4 µM; in assay [3], 16.8 µM; in [4], 34.6 µM; in assay [5], 23.4 µM; in [6], > 100 µM. Also, the TGI was 29.1 µM in assay [7], > 100 µM in assay [8], 21.6 µM in assay [9] and 24.2 µM in assay [10].

As to `CN(C)CCCNCc1cccc2ccccc12`, the TGI in assay [1], in assay [2], in [3], in [4], in assay [5] and in assay [6] was > 100 µM in each case. Moreover, the TGI in [7], in [8], in [9] and in assay [10] was > 100 µM each time.

`O=c1c2ccccc2nc(N/N=C/c2ccccc2O)n1-c1ccccc1`: the TGI in assay [1] was > 100 µM; in assay [2] it was 8.8 µM; in assay [3], > 100 µM; in [4], > 100 µM; in assay [5], > 100 µM; in assay [6], > 100 µM. Besides, the TGI in assay [7] is > 100 µM; in assay [8] it was 39.5 µM; in assay [9], > 100 µM; in [10], 81.3 µM.

In the case of `CN(C)/N=N/c1nc[nH]c1C(N)=O`, the GI50 in assay [1] is 31.4 µM; in assay [2], 45.4 µM; in assay [4] it was 32.9 µM; in [5], 73.8 µM; in assay [7], 92.8 µM; in assay [9], 139 µM. Moreover, the GI50 in assay [10] was 74 µM. The TGI is > 1000 µM in [1]; > 1000 µM in [2]; > 1000 µM in [3]; > 1000 µM in assay [4]; > 1000 µM in assay [5]; 90.1 µM and > 731 µM in assay [6]. The TGI in [7] was > 1000 µM; in assay [8], > 1000 µM; in assay [9] it was > 1000 µM; in assay [10], 87.1 µM and 796 µM.

On to `C=C1CN(C2=NCCO2)C1`, for which the TGI in [1], in [2], in assay [3], in assay [4], in [5] and in assay [6] was > 100 µM in each case. Besides, the TGI in assay [7], in assay [8], in assay [9] and in assay [10] was > 100 µM each time.

As for `O=C(O)CCC(NC(=O)c1ccc(Nc2nc3cc(C(F)(F)F)ccc3nc2C(=O)O)cc1)C(=O)O` (stereo not drawn), the TGI in assay [1], in [2], in [3], in assay [4], in assay [5] and in assay [6] was > 100 µM each time. Further, the TGI in assay [7], in assay [8], in assay [9] and in assay [10] was > 100 µM each time.

Turning to `C=C(C)CNC(=S)N(N)c1ccc2ccccc2c1`, the TGI in assay [1] was > 100 µM; in [2] it was > 100 µM; in [3] it was > 100 µM; in assay [4] it was > 100 µM; in assay [5] it was 28.7 µM; in [6], > 100 µM. Also, the TGI in [7], in assay [8], in [9] and in assay [10] was > 100 µM in each case.

Consider `C[C@H]1COC2=C1C(=O)C(=O)c1c2ccc2c1CCCC2(C)C`, for which the TGI in assay [1] was 2.74 µM; in assay [2], 46.3 µM; in [3], 3.26 µM; in assay [4], 34.5 µM; in [5], 18.6 µM; in assay [6] it was > 39.5 µM. For the same compound, the TGI in assay [7] is 3.15 µM; in [8], 9.55 µM; in assay [9], 4.19 µM; in [10], > 100 µM.

Take `Cc1cc(S(=O)(=O)/N=C(/NN)NNc2cccc(C(F)(F)F)n2)c(S)cc1Cl`: the TGI came to 40.6 µM in assay [1]; 50.6 µM in [2]; 29.2 µM in [3]; 39.3 µM in assay [4]; 38.2 µM in assay [5]; 63.6 µM in assay [6]. Moreover, the TGI in [7] was found to be 39.9 µM; in assay [8] it was 54.4 µM; in assay [9], 38.5 µM; in assay [10], 23.8 µM.

For `O=C(O)C(=O)/C=C(\O)c1ccc(Br)cc1`, the TGI in assay [1], in [2], in [3], in assay [4], in [5] and in assay [6] was > 100 µM in each case. The total growth inhibition concentration (TGI) in assay [7], in assay [8], in [9] and in assay [10] was > 100 µM in each case.

With `O=C1CC2CCC(C1)S2=O` (stereo not drawn), the TGI in assay [1], in [2], in assay [3], in [4], in [5] and in assay [6] was > 100 µM in each case. The TGI in assay [7], in assay [8], in assay [9] and in assay [10] was > 100 µM in each case.

Turning to `Cc1c(C(=O)O)n2cnnc2c2ccccc12`, the TGI in [1], in assay [2], in assay [3], in [4], in assay [5] and in assay [6] was > 100 µM each time. Further, the TGI in [7], in [8], in assay [9] and in assay [10] was > 100 µM in each case.

For `C=CCn1c(-c2ccc([N+](=O)[O-])cc2)csc1=N`, the TGI in assay [1] is > 100 µM; in assay [2], > 100 µM; in [3], > 100 µM; in [4], > 100 µM; in [5], > 100 µM; in assay [6], 34.7 µM. Moreover, the TGI in assay [7], in assay [8], in assay [9] and in [10] was > 100 µM throughout.

As for `CCC(NC1=NCCO1)c1cccs1` (stereo not drawn), the TGI in [1] is 27.6 µM; in assay [2], 27.1 µM; in assay [3], 27.7 µM; in assay [4], > 100 µM; in assay [5] it was 30.2 µM; in assay [6] it was 65.4 µM. The TGI in assay [7] is 33.3 µM; in [8], 26.4 µM; in assay [9], 34.9 µM; in [10], 32.6 µM.

Take `Cc1sc2nc3n(c(=O)c2c1C)N=CN(c1ccc(F)cc1)C3`: the TGI in assay [1] is > 100 µM; in assay [2] it was 49 µM; in assay [3] it was > 100 µM; in assay [4], > 100 µM; in assay [5], > 100 µM; in assay [6], > 100 µM. The TGI was > 100 µM in assay [7], 79.2 µM in assay [8], > 100 µM in assay [9] and 83.9 µM in assay [10].
